Data taken from ChEMBL document CHEMBL5154651, “Substituent effect of benzyl moiety in nitroquinoxaline small molecules upon DNA binding: Cumulative destacking of DNA nucleobases leading to histone eviction” (Eur J Med Chem, 2022).
The source made the active and inactive calls. No cut-off for these calls is given here.

Key:
HCT-116 [1] = assay: Induction of apoptosis in human HCT-116 cells assessed as increase in uptake of fluorescent nucleotide at 0.5 to 0.75 uM incubated for 4 hrs by TUNEL assay; type: functional, cell-based; details: dose 0.5-0.75 µM
GC rich DNA [2] = assay: Disruption of native ds-GC12 DNA base (unknown origin) stacking interaction assessed as change in peak intensity at 283 nm at 15 to 60 uM by ellipticity plot based analysis; type: nucleic-acid assay; details: dose 15-60 µM
GC rich DNA [3] = assay: Binding affinity to native ds-GC12 DNA assessed as increase in transition temperature of oligonucleotides at DNA-base pair to compound ratio of 1:4 by differential scanning calorimetry melting based analysis; type: nucleic-acid assay
DNA [4] = assay: Induction of GC-rich pYUB12 plasmid DNA (unknown origin) superstructure formation assessed as uncoiling of DNA with nodes and loops formation and DNA compaction at DNA base-pair to compound ratio of 1:0.5 by Atomic Force Microscopic analysis; type: nucleic-acid assay
Calf thymus DNA [5] = assay: Binding affinity to calf thymus DNA assessed as change in free energy by isothermal titration calorimetry; type: nucleic-acid assay; details: Bos taurus
Calf thymus DNA [6] = assay: Binding affinity to calf thymus DNA assessed as change in entropy by isothermal titration calorimetry; type: nucleic-acid assay; details: Bos taurus
HCT-116 [7] = assay: Induction of apoptosis in human HCT-116 cells assessed as late apoptotic cells at 0.5 uM incubated for 24 hrs by Annexin V-FITC and propidium iodide staining based flow cytometry analysis (reference value: 0.3%); type: functional
HCT-116 [8] = assay: Induction of apoptosis in human HCT-116 cells assessed as viable cells at 0.75 uM incubated for 24 hrs by Annexin V-FITC and propidium iodide staining based flow cytometry analysis (reference value: 95.3%); type: functional; details: read-out: Activity
HCT-116 [9] = assay: Cytotoxicity against human HCT-116 cells assessed as reduction in cell viability incubated for 24 hrs by MTT assay; type: functional, cell-based; details: HCT-116, 24 h
HCT-116 [10] = assay: Induction of DNA damage in human HCT-116 cells assessed as induction of phosphorylation of gamma-H2AX variant incubated for 4 hrs by DAPI staining based immunofluorescence analysis; type: functional, cell-based; details: HCT-116, 4 h
Calf thymus DNA [11] = assay: Binding affinity to calf thymus DNA assessed as change in enthalpy by isothermal titration calorimetry; type: nucleic-acid assay; details: Bos taurus
Supercoiled DNA = assay: Induction of GC-rich pYUB12 plasmid DNA (unknown origin) unwinding assessed as complete structural change by measuring decrease in band intensity of supercoiled DNA at DNA base-pair to compound ratio of 1:1.5 incubated for 16 hrs by mobility shift assay; type: nucleic-acid assay
HCT-116 [12] = assay: Induction of apoptosis in human HCT-116 cells assessed as late apoptotic cells at 0.75 uM incubated for 24 hrs by Annexin V-FITC and propidium iodide staining based flow cytometry analysis (reference value: 0.3%); type: functional
DNA [13] = assay: Induction of GC-rich pYUB12 plasmid DNA (unknown origin) superstructure formation assessed as height of plasmid DNA at DNA base-pair to compound ratio of 1:1.5 by Atomic Force Microscopic analysis (reference value: 0.26 +/-0.08 nm); type: nucleic-acid assay
HCT-116 [14] = assay: Induction of apoptosis in human HCT-116 cells assessed as viable cells at 1 uM incubated for 24 hrs by Annexin V-FITC and propidium iodide staining based flow cytometry analysis (reference value: 95.3%); type: functional; details: read-out: Activity
DNA [15] = assay: Induction of GC-rich pYUB12 plasmid DNA (unknown origin) superstructure formation assessed as DNA compaction with distorted structure at DNA base-pair to compound ratio of 1:1 by Atomic Force Microscopic analysis; type: nucleic-acid assay
DNA [16] = assay: Induction of GC-rich pYUB12 plasmid DNA (unknown origin) unwinding assessed as DNA structural changes at DNA base-pair to compound ratio of 1:6 incubated for 16 hrs by mobility shift assay; type: nucleic-acid assay
HCT-116 [17] = assay: Induction of apoptosis in human HCT-116 cells assessed as early apoptotic cells at 1 uM incubated for 24 hrs by Annexin V-FITC and propidium iodide staining based flow cytometry analysis (reference value: 0.6%); type: functional
HCT-116 [18] = assay: Induction of apoptosis in human HCT-116 cells assessed as early apoptotic cells at 0.5 uM incubated for 24 hrs by Annexin V-FITC and propidium iodide staining based flow cytometry analysis (reference value: 0.6%); type: functional
HCT-116 [19] = assay: Induction of apoptosis in human HCT-116 cells assessed as necrotic cells at 1 uM incubated for 24 hrs by Annexin V-FITC and propidium iodide staining based flow cytometry analysis (reference value: 3.9%); type: functional
GC rich DNA [20] = assay: Binding affinity to native ds-GC12 DNA assessed as reduction in melting temperature at DNA-base pair to compound ratio of 1:1 by differential scanning calorimetry melting based analysis; type: nucleic-acid assay
GC rich DNA [21] = assay: Binding affinity to native ds-GC12 DNA assessed as shift in melting temperature at DNA-base pair to compound ratio of 1:1 by differential scanning calorimetry melting based analysis; type: nucleic-acid assay
DNA [22] = assay: Induction of GC-rich pYUB12 plasmid DNA (unknown origin) superstructure formation assessed as DNA compaction with DNA over-supercoiling at DNA base-pair to compound ratio of 1:1.5 by Atomic Force Microscopic analysis; type: nucleic-acid assay
GC rich DNA [23] = assay: Disruption of native ds-GC12 DNA (unknown origin) base stacking interaction assessed as deformation of DNA native structure at DNA base-pair to compound ratio of 1:4 by circular dichroism analysis; type: nucleic-acid assay
[24] = Induction of histone eviction from single assembled nucleosome (unknown origin) assessed as reduction in nucleosome band intensity at 60 uM incubated for 4 hrs by silver staining based gel electrophoresis assay
Calf thymus DNA [25] = assay: Binding affinity to calf thymus DNA by isothermal titration calorimetry; type: nucleic-acid assay; details: Bos taurus
DNA [26] = assay: Binding affinity to GC-rich pYUB12 plasmid DNA (unknown origin) assessed as induction of DNA unwinding by measuring band shifting at DNA base-pair to compound ratio of 1:1 incubated for 16 hrs by mobility shift assay; type: nucleic-acid assay
GC rich DNA [27] = assay: Disruption of native ds-GC12 DNA (unknown origin) base stacking interaction assessed as decrease in positive peak intensity at 283 nm by circular dichroism analysis; type: nucleic-acid assay
HCT-116 [28] = assay: Induction of apoptosis in human HCT-116 cells assessed as late apoptotic cells at 1 uM incubated for 24 hrs by Annexin V-FITC and propidium iodide staining based flow cytometry analysis (reference value: 0.3%); type: functional
HCT-116 [29] = assay: Induction of DNA damage in human HCT-116 cells assessed as induction of phosphorylation of gamma-H2AX variant at 0.75 uM incubated for 4 hrs by DAPI staining based immunofluorescence analysis; type: functional, cell-based
HCT-116 [30] = assay: Induction of DNA double strand breaks in human HCT-116 cells assessed as increase in tail length at 0.5 to 0.75 uM incubated for 24 hrs by neutral comet assay; type: functional, cell-based; details: dose 0.5-0.75 µM
DNA [31] = assay: Induction of GC-rich pYUB12 plasmid DNA (unknown origin) unwinding assessed as complete structural change with DNA condensation by measuring increase in condensed DNA band intensity at DNA base-pair to compound ratio of 1:1.5 incubated for 16 hrs by mobility shift assay; type: nucleic-acid assay
GC rich DNA [32] = assay: Displacement of Ethidium bromide from native ds-GC12 short DNA (unknown origin) by Stern-Volmer quenching plot analysis; type: nucleic-acid assay
[33] = Induction of histone eviction from single assembled nucleosome (unknown origin) assessed as unwrapping of histone from nucleosome at 15 to 20 uM incubated for 4 hrs by silver staining based gel electrophoresis assay; details: dose 15-20 µM
HCT-116 [34] = assay: Induction of apoptosis in human HCT-116 cells assessed as viable cells at 0.5 uM incubated for 24 hrs by Annexin V-FITC and propidium iodide staining based flow cytometry analysis (reference value: 95.3%); type: functional; details: read-out: Activity
HCT-116 [35] = assay: Induction of DNA double strand breaks in human HCT-116 cells incubated for 24 hrs by neutral comet assay; type: functional, cell-based; details: dose 0.5-0.75 µM, DDE = dose-dependent effect
HCT-116 [36] = assay: Induction of apoptosis in human HCT-116 cells assessed as early apoptotic cells at 0.75 uM incubated for 24 hrs by Annexin V-FITC and propidium iodide staining based flow cytometry analysis (reference value: 0.6%); type: functional
HCT-116 [37] = assay: Induction of apoptosis in human HCT-116 cells assessed as necrotic cells at 0.75 uM incubated for 24 hrs by Annexin V-FITC and propidium iodide staining based flow cytometry analysis (reference value: 3.9%); type: functional
[38] = Induction of histone eviction from single assembled nucleosome (unknown origin) assessed as maximum unwrapping of histone from nucleosome at 25 uM incubated for 4 hrs by silver staining based gel electrophoresis assay
HCT-116 [39] = assay: Induction of apoptosis in human HCT-116 cells assessed as necrotic cells at 0.5 uM incubated for 24 hrs by Annexin V-FITC and propidium iodide staining based flow cytometry analysis (reference value: 3.9%); type: functional

CN(C)CCCNc1nc2cc([N+](=O)[O-])ccc2nc1NCc1ccc(I)cc1
Activity (HCT-116 [1]): Active
Activity (GC rich DNA [2]): Active
ΔTm (GC rich DNA [3]): 12 °C
Activity (DNA [4]): Active
deltaG (Calf thymus DNA [5]): -7.87 kcal/mol
TdeltaS (Calf thymus DNA [6]): 6.12 kcal/mol
Activity (HCT-116 [7]): 18.2%
viability at 0.75 µM (HCT-116 [8]): 1.7%
IC50 (HCT-116 [9]): 0.44 µM
IC50 (HCT-116 [10]): 0.5 µM
deltaH (Calf thymus DNA [11]): -1.75 kcal/mol
Activity (Supercoiled DNA): Active
Activity (HCT-116 [12]): 21.1%
Activity (DNA [13]): 1.48 nm
viability at 1 µM (HCT-116 [14]): 3%
Activity (DNA [15]): Active
Activity (DNA [16]): Active
Activity (HCT-116 [17]): 69.3%
Activity (HCT-116 [18]): 79.2%
Activity (HCT-116 [19]): 0.7%
ΔTm (GC rich DNA [20]): 2.5 °C
Tm (GC rich DNA [21]): 49.5 °C
Activity (DNA [22]): Active
Activity (GC rich DNA [23]): Active
Activity [24]: Active
Ka (Calf thymus DNA [25]): 4.66 10^5/M
Activity (DNA [26]): Active
Activity (GC rich DNA [27]): Active
Activity (HCT-116 [28]): 27%
Activity (HCT-116 [29]): Active
Activity (HCT-116 [30]): Active
Activity (DNA [31]): Active
KSV (GC rich DNA [32]): 5.8 10^4/M
Activity [33]: Active
viability at 0.5 µM (HCT-116 [34]): 2.2%
Activity (HCT-116 [35]): Dde
Activity (HCT-116 [36]): 76.8%
Activity (HCT-116 [37]): 0.4%
Activity [38]: Active
Activity (HCT-116 [39]): 0.3%
